Experimental data reported in the CheMixHub viscosity set.
Values joined by “and” are separate entries in the source; they are usually repeats but may differ in a detail not shown here. Equal values may be shown once. ± gives the uncertainty stated by the source.

Test: xn = mol fraction of the nth substance listed

C1CCOC1 + Cc1ccccc1
viscosity (303.15 K, 101.33 kPa, x1 = 0.1014): 0.52 ± 0.005 mPa·s | viscosity (303.15 K, 101.33 kPa, x1 = 0.1984): 0.518 ± 0.005 mPa·s | viscosity (303.15 K, 101.33 kPa, x1 = 0.3066): 0.512 ± 0.005 mPa·s | viscosity (303.15 K, 101.33 kPa, x1 = 0.3662): 0.51 ± 0.005 mPa·s | viscosity (303.15 K, 101.33 kPa, x1 = 0.4984): 0.499 ± 0.005 mPa·s | viscosity (303.15 K, 101.33 kPa, x1 = 0.5997): 0.489 ± 0.005 mPa·s | viscosity (303.15 K, 101.33 kPa, x1 = 0.702): 0.479 ± 0.005 mPa·s | viscosity (303.15 K, 101.33 kPa, x1 = 0.7981): 0.467 ± 0.004 mPa·s | viscosity (303.15 K, 101.33 kPa, x1 = 0.8997): 0.453 ± 0.004 mPa·s

CC(C)=O + Cc1ccccc1
viscosity (293.15 K, 101.32 kPa, x2 = 0.072): 0.3349 ± 0.0042 mPa·s | viscosity (293.15 K, 101.32 kPa, x2 = 0.148): 0.3525 ± 0.0044 mPa·s | viscosity (293.15 K, 101.32 kPa, x2 = 0.229): 0.374 ± 0.0047 mPa·s | viscosity (293.15 K, 101.32 kPa, x2 = 0.317): 0.3966 ± 0.0049 mPa·s | viscosity (293.15 K, 101.32 kPa, x2 = 0.409): 0.42 ± 0.0052 mPa·s | viscosity (293.15 K, 101.32 kPa, x2 = 0.509): 0.4506 ± 0.0055 mPa·s | viscosity (293.15 K, 101.32 kPa, x2 = 0.617): 0.4775 ± 0.0058 mPa·s | viscosity (293.15 K, 101.32 kPa, x2 = 0.735): 0.5095 ± 0.0062 mPa·s | viscosity (293.15 K, 101.32 kPa, x2 = 0.862): 0.5472 ± 0.0066 mPa·s | viscosity (298.15 K, 101 kPa, x1 = 0.0233): 0.548 ± 0.004 mPa·s | viscosity (298.15 K, 101 kPa, x1 = 0.0652): 0.537 ± 0.004 mPa·s | viscosity (298.15 K, 101 kPa, x1 = 0.1349): 0.518 ± 0.004 mPa·s | viscosity (298.15 K, 101 kPa, x1 = 0.2009): 0.499 ± 0.004 mPa·s | viscosity (298.15 K, 101 kPa, x1 = 0.301): 0.475 ± 0.004 mPa·s | viscosity (298.15 K, 101 kPa, x1 = 0.3387): 0.465 ± 0.003 mPa·s | viscosity (298.15 K, 101 kPa, x1 = 0.412): 0.445 ± 0.003 mPa·s | viscosity (298.15 K, 101 kPa, x1 = 0.5133): 0.419 ± 0.003 mPa·s | viscosity (298.15 K, 101 kPa, x1 = 0.515): 0.418 ± 0.003 mPa·s | viscosity (298.15 K, 101 kPa, x1 = 0.6017): 0.396 ± 0.003 mPa·s | viscosity (298.15 K, 101 kPa, x1 = 0.6968): 0.372 ± 0.003 mPa·s | viscosity (298.15 K, 101 kPa, x1 = 0.7979): 0.349 ± 0.003 mPa·s | viscosity (298.15 K, 101 kPa, x1 = 0.8969): 0.325 ± 0.003 mPa·s | viscosity (298.15 K, 101 kPa, x2 = 0.0702): 0.3418 ± 0.0051 mPa·s and 0.3418 ± 0.0067 mPa·s | viscosity (298.15 K, 101 kPa, x2 = 0.1468): 0.3759 ± 0.0055 mPa·s and 0.3759 ± 0.0073 mPa·s | viscosity (298.15 K, 101 kPa, x2 = 0.2269): 0.4076 ± 0.0057 mPa·s and 0.4076 ± 0.0079 mPa·s | viscosity (298.15 K, 101 kPa, x2 = 0.3135): 0.4383 ± 0.006 mPa·s and 0.4383 ± 0.0085 mPa·s | viscosity (298.15 K, 101 kPa, x2 = 0.4051): 0.4662 ± 0.0063 mPa·s and 0.4662 ± 0.009 mPa·s | viscosity (298.15 K, 101 kPa, x2 = 0.5072): 0.4893 ± 0.0065 mPa·s and 0.4893 ± 0.0094 mPa·s | viscosity (298.15 K, 101 kPa, x2 = 0.616): 0.5092 ± 0.0067 mPa·s and 0.5092 ± 0.0098 mPa·s | viscosity (298.15 K, 101 kPa, x2 = 0.7355): 0.5293 ± 0.0069 mPa·s and 0.5293 ± 0.01 mPa·s | viscosity (298.15 K, 101 kPa, x2 = 0.8629): 0.5462 ± 0.0071 mPa·s and 0.5462 ± 0.01 mPa·s | viscosity (298.15 K, 101.32 kPa, x2 = 0.073): 0.3172 ± 0.004 mPa·s | viscosity (298.15 K, 101.32 kPa, x2 = 0.148): 0.3344 ± 0.0042 mPa·s | viscosity (298.15 K, 101.32 kPa, x2 = 0.229): 0.353 ± 0.0044 mPa·s | viscosity (298.15 K, 101.32 kPa, x2 = 0.317): 0.3764 ± 0.0047 mPa·s | viscosity (298.15 K, 101.32 kPa, x2 = 0.41): 0.3994 ± 0.005 mPa·s | viscosity (298.15 K, 101.32 kPa, x2 = 0.509): 0.4236 ± 0.0052 mPa·s | viscosity (298.15 K, 101.32 kPa, x2 = 0.618): 0.4521 ± 0.0056 mPa·s | viscosity (298.15 K, 101.32 kPa, x2 = 0.735): 0.4807 ± 0.0059 mPa·s | viscosity (298.15 K, 101.32 kPa, x2 = 0.862): 0.5138 ± 0.0063 mPa·s | viscosity (303.15 K, 101 kPa, x2 = 0.0702): 0.3218 ± 0.005 mPa·s and 0.3218 ± 0.0063 mPa·s | viscosity (303.15 K, 101 kPa, x2 = 0.0929): 0.3192 ± 0.0086 mPa·s | viscosity (303.15 K, 101 kPa, x2 = 0.1468): 0.3527 ± 0.0052 mPa·s and 0.3527 ± 0.0069 mPa·s | viscosity (303.15 K, 101 kPa, x2 = 0.2269): 0.381 ± 0.0055 mPa·s and 0.381 ± 0.0074 mPa·s | viscosity (303.15 K, 101 kPa, x2 = 0.3135): 0.4098 ± 0.0058 mPa·s and 0.4098 ± 0.0079 mPa·s | viscosity (303.15 K, 101 kPa, x2 = 0.3674): 0.4169 ± 0.011 mPa·s | viscosity (303.15 K, 101 kPa, x2 = 0.4051): 0.4358 ± 0.006 mPa·s and 0.4358 ± 0.0084 mPa·s | viscosity (303.15 K, 101 kPa, x2 = 0.5072): 0.4553 ± 0.0062 mPa·s and 0.4553 ± 0.0088 mPa·s | viscosity (303.15 K, 101 kPa, x2 = 0.616): 0.475 ± 0.0064 mPa·s and 0.475 ± 0.0091 mPa·s | viscosity (303.15 K, 101 kPa, x2 = 0.7355): 0.4947 ± 0.0066 mPa·s and 0.4947 ± 0.0095 mPa·s | viscosity (303.15 K, 101 kPa, x2 = 0.8102): 0.4984 ± 0.013 mPa·s | viscosity (303.15 K, 101 kPa, x2 = 0.8629): 0.5144 ± 0.0068 mPa·s and 0.5144 ± 0.0099 mPa·s | viscosity (308.15 K, 101 kPa, x2 = 0.0702): 0.3021 ± 0.0048 mPa·s and 0.3021 ± 0.0059 mPa·s | viscosity (308.15 K, 101 kPa, x2 = 0.1468): 0.3267 ± 0.005 mPa·s and 0.3267 ± 0.0064 mPa·s | viscosity (308.15 K, 101 kPa, x2 = 0.2269): 0.3517 ± 0.0052 mPa·s and 0.3517 ± 0.0068 mPa·s | viscosity (308.15 K, 101 kPa, x2 = 0.3135): 0.3785 ± 0.0055 mPa·s and 0.3785 ± 0.0073 mPa·s | viscosity (308.15 K, 101 kPa, x2 = 0.4051): 0.404 ± 0.0057 mPa·s and 0.404 ± 0.0078 mPa·s | viscosity (308.15 K, 101 kPa, x2 = 0.5072): 0.425 ± 0.0059 mPa·s and 0.425 ± 0.0082 mPa·s | viscosity (308.15 K, 101 kPa, x2 = 0.616): 0.4443 ± 0.0061 mPa·s and 0.4443 ± 0.0086 mPa·s | viscosity (308.15 K, 101 kPa, x2 = 0.7355): 0.4638 ± 0.0063 mPa·s and 0.4638 ± 0.0089 mPa·s | viscosity (308.15 K, 101 kPa, x2 = 0.8629): 0.4848 ± 0.0065 mPa·s and 0.4848 ± 0.0093 mPa·s | viscosity (308.15 K, 101.32 kPa, x2 = 0.073): 0.2891 ± 0.0037 mPa·s | viscosity (308.15 K, 101.32 kPa, x2 = 0.149): 0.3036 ± 0.0039 mPa·s | viscosity (308.15 K, 101.32 kPa, x2 = 0.23): 0.3204 ± 0.0041 mPa·s | viscosity (308.15 K, 101.32 kPa, x2 = 0.318): 0.3407 ± 0.0043 mPa·s | viscosity (308.15 K, 101.32 kPa, x2 = 0.411): 0.3615 ± 0.0045 mPa·s | viscosity (308.15 K, 101.32 kPa, x2 = 0.51): 0.3829 ± 0.0048 mPa·s | viscosity (308.15 K, 101.32 kPa, x2 = 0.619): 0.4072 ± 0.0051 mPa·s | viscosity (308.15 K, 101.32 kPa, x2 = 0.736): 0.4335 ± 0.0054 mPa·s | viscosity (308.15 K, 101.32 kPa, x2 = 0.862): 0.463 ± 0.0057 mPa·s | viscosity (313.15 K, 101 kPa, x2 = 0.0929): 0.2858 ± 0.0078 mPa·s | viscosity (313.15 K, 101 kPa, x2 = 0.3674): 0.3952 ± 0.011 mPa·s | viscosity (313.15 K, 101 kPa, x2 = 0.8102): 0.4622 ± 0.012 mPa·s | viscosity (318.15 K, 101.32 kPa, x2 = 0.073): 0.2628 ± 0.0035 mPa·s | viscosity (318.15 K, 101.32 kPa, x2 = 0.149): 0.2767 ± 0.0036 mPa·s | viscosity (318.15 K, 101.32 kPa, x2 = 0.23): 0.2923 ± 0.0038 mPa·s | viscosity (318.15 K, 101.32 kPa, x2 = 0.319): 0.3081 ± 0.0039 mPa·s | viscosity (318.15 K, 101.32 kPa, x2 = 0.412): 0.3264 ± 0.0041 mPa·s | viscosity (318.15 K, 101.32 kPa, x2 = 0.511): 0.347 ± 0.0044 mPa·s | viscosity (318.15 K, 101.32 kPa, x2 = 0.61): 0.367 ± 0.0046 mPa·s | viscosity (318.15 K, 101.32 kPa, x2 = 0.737): 0.3916 ± 0.0049 mPa·s | viscosity (318.15 K, 101.32 kPa, x2 = 0.863): 0.4162 ± 0.0052 mPa·s | viscosity (323.15 K, 101 kPa, x2 = 0.0929): 0.2564 ± 0.007 mPa·s | viscosity (323.15 K, 101 kPa, x2 = 0.3674): 0.3538 ± 0.0096 mPa·s | viscosity (323.15 K, 101 kPa, x2 = 0.8102): 0.4467 ± 0.012 mPa·s

c1ccc2ccccc2c1 + ClC(Cl)(Cl)Cl
viscosity (303.15 K, 101 kPa, x1 = 0.2515): 1.085 ± 0.027 mPa·s | viscosity (308.15 K, 101 kPa, x1 = 0.2515): 1 ± 0.025 mPa·s | viscosity (313.15 K, 101 kPa, x1 = 0.2515): 0.9335 ± 0.024 mPa·s | viscosity (313.15 K, 101 kPa, x1 = 0.4038): 1.109 ± 0.028 mPa·s | viscosity (318.15 K, 101 kPa, x1 = 0.2515): 0.8708 ± 0.022 mPa·s | viscosity (318.15 K, 101 kPa, x1 = 0.4038): 1.036 ± 0.026 mPa·s | viscosity (323.15 K, 101 kPa, x1 = 0.2515): 0.8138 ± 0.021 mPa·s | viscosity (323.15 K, 101 kPa, x1 = 0.4038): 0.9672 ± 0.024 mPa·s
